# Results: ChEMBL document CHEMBL1909046, “DrugMatrix in vitro pharmacology data”
# Tests used:
# Cytochrome P450 3A4 = Cytochrome P450 3A4 (Homo sapiens, UniProt P08684); conditions: bti-tn-5b1-4; further: in other assays of this panel Not Active means under 50% inhibition at 10 µM
# [1] = target: T1, Neuropeptide Y receptor type 1 (Homo sapiens, UniProt P25929); format: cell membranes, Membrane; conditions: sk-n-mc; further: in other assays of this panel Not Active means under 50% inhibition at 10 µM
# T1 sequence (P25929 whole entry): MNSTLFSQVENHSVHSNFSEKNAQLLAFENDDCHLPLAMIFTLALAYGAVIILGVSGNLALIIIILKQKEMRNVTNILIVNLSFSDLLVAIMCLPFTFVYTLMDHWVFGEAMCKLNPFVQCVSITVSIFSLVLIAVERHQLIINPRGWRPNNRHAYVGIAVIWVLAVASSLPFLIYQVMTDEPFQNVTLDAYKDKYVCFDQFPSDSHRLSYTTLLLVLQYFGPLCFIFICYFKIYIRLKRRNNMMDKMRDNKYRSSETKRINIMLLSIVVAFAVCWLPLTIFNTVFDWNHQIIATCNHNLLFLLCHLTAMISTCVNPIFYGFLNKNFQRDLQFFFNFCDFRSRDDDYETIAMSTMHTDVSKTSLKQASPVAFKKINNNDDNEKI
# [2] = target: T2, Amine oxidase [flavin-containing] A (Homo sapiens, UniProt P21397); assay: DRUGMATRIX: Monoamine Oxidase MAO-A enzyme inhibition (substrate: Kynuramine); design: species or system BTI-TN-5B1-4; conditions: Not Active = under 50% inhibition at 10 µM
# T2 sequence (P21397 whole entry): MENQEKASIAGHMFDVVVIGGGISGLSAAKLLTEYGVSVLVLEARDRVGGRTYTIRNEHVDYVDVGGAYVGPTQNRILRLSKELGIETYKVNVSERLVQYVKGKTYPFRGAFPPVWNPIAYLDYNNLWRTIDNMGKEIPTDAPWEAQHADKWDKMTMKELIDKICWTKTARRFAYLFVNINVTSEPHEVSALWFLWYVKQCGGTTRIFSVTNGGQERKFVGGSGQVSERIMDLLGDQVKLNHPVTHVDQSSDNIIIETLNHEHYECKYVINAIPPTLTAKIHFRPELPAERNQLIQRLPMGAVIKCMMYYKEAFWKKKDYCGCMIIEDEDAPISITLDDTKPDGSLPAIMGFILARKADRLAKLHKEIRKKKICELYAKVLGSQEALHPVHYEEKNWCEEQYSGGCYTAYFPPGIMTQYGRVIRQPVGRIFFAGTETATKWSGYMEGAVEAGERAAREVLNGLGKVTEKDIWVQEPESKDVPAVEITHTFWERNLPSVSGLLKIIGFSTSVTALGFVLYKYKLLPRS
# [3] = target: T3, Vasoactive intestinal polypeptide receptor 1 (Homo sapiens, UniProt P32241); format: cell membranes, Membrane; conditions: ht-29; further: in other assays of this panel Not Active means under 50% inhibition at 10 µM
# T3 sequence (P32241 whole entry): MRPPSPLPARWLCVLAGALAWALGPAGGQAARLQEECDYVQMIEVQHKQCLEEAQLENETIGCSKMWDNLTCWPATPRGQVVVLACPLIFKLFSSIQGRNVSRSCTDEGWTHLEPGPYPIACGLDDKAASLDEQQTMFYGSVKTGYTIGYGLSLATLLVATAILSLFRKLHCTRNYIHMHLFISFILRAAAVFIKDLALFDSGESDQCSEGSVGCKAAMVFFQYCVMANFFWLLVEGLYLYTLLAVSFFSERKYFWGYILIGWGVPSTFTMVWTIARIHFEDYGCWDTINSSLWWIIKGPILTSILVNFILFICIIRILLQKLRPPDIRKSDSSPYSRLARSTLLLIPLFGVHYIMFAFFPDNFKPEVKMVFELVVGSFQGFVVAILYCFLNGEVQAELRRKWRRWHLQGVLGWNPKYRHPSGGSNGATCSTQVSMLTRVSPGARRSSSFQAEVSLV
# [4] = target: Beta-1 adrenergic receptor (Homo sapiens, UniProt P08588); assay: DRUGMATRIX: Adrenergic beta1 radioligand binding (ligand: [125I] Cyanopindolol); format: cell membranes, CHO-K1, Membrane; conditions: cho-k1; Not Active = under 50% inhibition at 10 µM
# [5] = target: T4, C-X-C chemokine receptor type 1 (Homo sapiens, UniProt P25024); further: in other assays of this panel Not Active means under 50% inhibition at 10 µM
# T4 sequence (P25024 whole entry): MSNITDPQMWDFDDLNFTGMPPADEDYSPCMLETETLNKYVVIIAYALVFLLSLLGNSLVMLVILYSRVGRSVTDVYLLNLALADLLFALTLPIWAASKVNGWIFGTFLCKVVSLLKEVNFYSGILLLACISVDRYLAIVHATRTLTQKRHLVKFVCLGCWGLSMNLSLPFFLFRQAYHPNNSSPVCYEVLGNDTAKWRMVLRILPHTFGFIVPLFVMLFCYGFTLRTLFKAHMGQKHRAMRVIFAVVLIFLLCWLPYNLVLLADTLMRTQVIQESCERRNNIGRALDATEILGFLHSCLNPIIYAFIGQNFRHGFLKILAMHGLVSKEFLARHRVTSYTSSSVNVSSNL
# [6] = DRUGMATRIX: Interleukin IL-1 radioligand binding (ligand: [125I] interleukin 1beta); format: cell membranes, Membrane; conditions: nih3t3; Not Active = under 50% inhibition at 10 µM
# [7] = DRUGMATRIX: Glutamate, AMPA radioligand binding (ligand: [3H] AMPA); format: cell membranes, Rattus norvegicus, Wistar, Cerebral cortex, Membrane; conditions: Not Active = under 50% inhibition at 10 µM
# Cytochrome P450 3A4, sequence (P08684 whole entry): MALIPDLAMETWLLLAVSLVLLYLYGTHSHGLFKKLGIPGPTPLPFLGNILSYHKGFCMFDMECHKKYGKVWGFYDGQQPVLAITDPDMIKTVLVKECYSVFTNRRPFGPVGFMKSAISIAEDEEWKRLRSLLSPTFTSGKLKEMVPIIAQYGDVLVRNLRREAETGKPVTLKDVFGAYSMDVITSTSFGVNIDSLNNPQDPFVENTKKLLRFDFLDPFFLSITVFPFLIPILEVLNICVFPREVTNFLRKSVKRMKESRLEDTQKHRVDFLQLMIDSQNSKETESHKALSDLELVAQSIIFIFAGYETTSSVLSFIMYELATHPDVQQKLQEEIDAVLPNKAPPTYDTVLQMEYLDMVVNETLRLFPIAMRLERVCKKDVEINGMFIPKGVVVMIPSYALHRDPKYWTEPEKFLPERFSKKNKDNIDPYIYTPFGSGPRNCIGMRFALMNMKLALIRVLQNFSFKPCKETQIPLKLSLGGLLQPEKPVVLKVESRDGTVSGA
# Beta-1 adrenergic receptor, sequence (P08588 whole entry): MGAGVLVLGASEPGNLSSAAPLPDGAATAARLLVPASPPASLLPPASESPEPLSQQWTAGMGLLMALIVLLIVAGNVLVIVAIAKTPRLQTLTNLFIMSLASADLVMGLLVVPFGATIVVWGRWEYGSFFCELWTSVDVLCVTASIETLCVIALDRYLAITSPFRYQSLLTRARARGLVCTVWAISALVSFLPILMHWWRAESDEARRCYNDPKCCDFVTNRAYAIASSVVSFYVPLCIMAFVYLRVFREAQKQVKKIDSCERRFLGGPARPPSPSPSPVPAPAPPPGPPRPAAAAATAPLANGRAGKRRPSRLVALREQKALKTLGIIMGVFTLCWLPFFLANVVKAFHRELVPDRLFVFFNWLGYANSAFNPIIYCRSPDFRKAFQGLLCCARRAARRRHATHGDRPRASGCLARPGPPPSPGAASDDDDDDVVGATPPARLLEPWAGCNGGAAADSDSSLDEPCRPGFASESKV
SMILES,IC50 (Cytochrome P450 3A4),Ki (Cytochrome P450 3A4),IC50 [1],IC50 ([2]; bti-tn-5b1-4),IC50 [3],IC50 [4],IC50 [5],IC50 [6],Ki [6],IC50 [7],Ki [7],IC50 ([2]; read-out: IC50) [µM]
CC(C)(C)NC(=O)[C@@H]1C[C@@H]2CCCC[C@@H]2CN1C[C@@H](O)[C@H](Cc1ccccc1)NC(=O)[C@H](CC(N)=O)NC(=O)c1ccc2ccccc2n1,Not Active,Not Active,Not Active,Not Active,Not Active,Not Active,Not Active,Not Active,Not Active,Not Active,Not Active,
CC(=O)[C@@]1(O)CC[C@H]2[C@@H]3C[C@H](C)C4=CC(=O)CC[C@]4(C)[C@H]3CC[C@@]21C,Not Active,Not Active,Not Active,Not Active,Not Active,Not Active,Not Active,Not Active,Not Active,Not Active,Not Active,
N[C@@H](Cc1ccc(N(CCCl)CCCl)cc1)C(=O)O,Not Active,Not Active,Not Active,Not Active,Not Active,Not Active,Not Active,Not Active,Not Active,Not Active,Not Active,
CCCCc1oc2ccccc2c1C(=O)c1cc(I)c(OCCN(CC)CC)c(I)c1 [AMIODARONE],,,Not Active,Not Active,Not Active,,Not Active,,,,,
OCCN(CCO)c1nc(N2CCCCC2)c2nc(N(CCO)CCO)nc(N3CCCCC3)c2n1 [DIPYRIDAMOLE],,,Not Active,Not Active,Not Active,Not Active,Not Active,Not Active,Not Active,Not Active,Not Active,
Cc1oncc1C(=O)Nc1ccc(C(F)(F)F)cc1 [LEFLUNOMIDE],Not Active,Not Active,Not Active,,Not Active,Not Active,Not Active,Not Active,Not Active,Not Active,Not Active,20.7
c1ccc([C@H]2CN3CCSC3=N2)cc1 [LEVAMISOLE],Not Active,Not Active,Not Active,Not Active,Not Active,Not Active,Not Active,Not Active,Not Active,Not Active,Not Active,
N[C@@H](Cc1ccc(O)c(O)c1)C(=O)O [LEVODOPA],Not Active,Not Active,Not Active,Not Active,Not Active,Not Active,Not Active,Not Active,Not Active,Not Active,Not Active,
N[C@@H](Cc1cc(I)c(Oc2ccc(O)c(I)c2)c(I)c1)C(=O)O [LIOTHYRONINE],,,Not Active,Not Active,Not Active,Not Active,Not Active,,,,,
O=NN(CCCl)C(=O)NC1CCCCC1 [LOMUSTINE],Not Active,Not Active,Not Active,Not Active,Not Active,Not Active,Not Active,Not Active,Not Active,Not Active,Not Active,
